{"source": "ChEMBL document CHEMBL3044646", "about": "“Management of tomato leaf mould caused by Cladosporium fulvum with trifloxystrobin” (2007)", "type_in_all_cases": "functional", "key": {"Fulvia fulva [1]": {"system": "Fulvia fulva", "assay": "Antifungal activity against Passalora fulva infected tomato cultivar Alma F1 plants grown in growth chamber assessed as reduction in lesions on leaf at 10 ug a.i./ml sprayed 24 hr prior to inoculation measured after 22 days relative to control", "parameters": "scale not given: the % may be the effect or the level left"}, "Fulvia fulva [2]": {"system": "Fulvia fulva", "assay": "Antifungal activity against Passalora fulva infected tomato cultivar Alma F1 plants grown in growth chamber assessed as inhibition of sporulation at 5 ug a.i./ml applied at 15 days post-inoculation after appearance of symptoms followed by incubation in growth chamber for 72 hr relative to control"}, "Fulvia fulva [3]": {"system": "Fulvia fulva", "assay": "Antifungal activity against Passalora fulva infected tomato cultivar Alma F1 plants grown in growth chamber assessed as reduction in lesions on leaf at 20 ug a.i./ml sprayed 24 hr prior to inoculation measured after 22 days relative to control", "parameters": "scale not given: the % may be the effect or the level left"}, "Fulvia fulva [4]": {"system": "Fulvia fulva", "assay": "Antifungal activity against Passalora fulva infected tomato cultivar Alma F1 plants grown in growth chamber assessed as reduction in lesions on leaf at 10 ug a.i./ml sprayed 24 hr post-inoculation measured after 22 days relative to control", "parameters": "scale not given: the % may be the effect or the level left"}, "Fulvia fulva [5]": {"system": "Fulvia fulva", "assay": "Antifungal activity against Passalora fulva infected tomato cultivar Alma F1 plants grown in growth chamber assessed as reduction in lesions on leaf at 10 ug a.i./ml sprayed 96 hr post-inoculation measured after 22 days relative to control", "parameters": "scale not given: the % may be the effect or the level left"}, "Fulvia fulva [6]": {"system": "Fulvia fulva", "assay": "Antifungal activity against Passalora fulva infected tomato cultivar Alma F1 plants grown in growth chamber assessed as reduction in lesions on leaf at 10 ug a.i./ml sprayed 48 hr post-inoculation measured after 22 days relative to control", "parameters": "scale not given: the % may be the effect or the level left"}, "Fulvia fulva [7]": {"system": "Fulvia fulva", "assay": "Antifungal activity against Passalora fulva infected tomato cultivar Alma F1 plants grown in growth chamber assessed as reduction in lesions on leaf at 20 ug a.i./ml sprayed 96 hr post-inoculation measured after 22 days relative to control", "parameters": "scale not given: the % may be the effect or the level left"}, "Fulvia fulva [8]": {"system": "Fulvia fulva", "assay": "Antifungal activity against Passalora fulva infected tomato cultivar Alma F1 plants grown in growth chamber assessed as reduction in lesions on leaf at 5 ug a.i./ml sprayed 24 hr post-inoculation measured after 22 days relative to control", "parameters": "scale not given: the % may be the effect or the level left"}, "Fulvia fulva [9]": {"system": "Fulvia fulva", "assay": "Antifungal activity against Passalora fulva infected tomato cultivar Alma F1 plants grown in growth chamber assessed as reduction in lesions on leaf at 5 ug a.i./ml sprayed 24 hr prior to inoculation measured after 22 days relative to control", "parameters": "scale not given: the % may be the effect or the level left"}, "Fulvia fulva [10]": {"system": "Fulvia fulva", "assay": "Antifungal activity against Passalora fulva infected tomato cultivar Alma F1 plants grown in growth chamber assessed as reduction in lesions on leaf at 5 ug a.i./ml sprayed 96 hr post-inoculation measured after 22 days relative to control", "parameters": "scale not given: the % may be the effect or the level left"}, "Fulvia fulva [11]": {"system": "Fulvia fulva", "assay": "Antifungal activity against Passalora fulva infected tomato cultivar Alma F1 plants grown in growth chamber assessed as inhibition of sporulation at 10 ug a.i./ml applied at 15 days post-inoculation after appearance of symptoms followed by incubation in growth chamber for 72 hr relative to control"}, "Fulvia fulva [12]": {"system": "Fulvia fulva", "assay": "Antifungal activity against Passalora fulva infected tomato cultivar Alma F1 plants grown in growth chamber assessed as reduction in lesions on leaf at 20 ug a.i./ml sprayed 48 hr prior to inoculation measured after 22 days relative to control", "parameters": "scale not given: the % may be the effect or the level left"}, "Fulvia fulva [13]": {"system": "Fulvia fulva", "assay": "Antifungal activity against Passalora fulva infected tomato cultivar Alma F1 plants grown in growth chamber assessed as reduction in lesions on leaf at 5 ug a.i./ml sprayed 48 hr post-inoculation measured after 22 days relative to control", "parameters": "scale not given: the % may be the effect or the level left"}, "Fulvia fulva [14]": {"system": "Fulvia fulva", "assay": "Antifungal activity against Passalora fulva infected tomato cultivar Alma F1 plants grown in growth chamber assessed as reduction in lesions on leaf at 10 ug a.i./ml sprayed 96 hr prior to inoculation measured after 22 days relative to control", "parameters": "scale not given: the % may be the effect or the level left"}, "Fulvia fulva [15]": {"system": "Fulvia fulva", "assay": "Antifungal activity against Passalora fulva infected tomato cultivar Alma F1 plants grown in growth chamber assessed as reduction in lesions on leaf at 10 ug a.i./ml sprayed 48 hr prior to inoculation measured after 22 days relative to control", "parameters": "scale not given: the % may be the effect or the level left"}, "Fulvia fulva [16]": {"system": "Fulvia fulva", "assay": "Antifungal activity against Passalora fulva infected tomato cultivar Alma F1 plants grown in growth chamber assessed as reduction in lesions on leaf at 5 ug a.i./ml sprayed 48 hr prior to inoculation measured after 22 days relative to control", "parameters": "scale not given: the % may be the effect or the level left"}, "Fulvia fulva [17]": {"system": "Fulvia fulva", "assay": "Antifungal activity against Passalora fulva infected tomato cultivar Alma F1 plants grown in growth chamber assessed as reduction in lesions on leaf at 5 ug a.i./ml sprayed 96 hr prior to inoculation measured after 22 days relative to control", "parameters": "scale not given: the % may be the effect or the level left"}, "Fulvia fulva [18]": {"system": "Fulvia fulva", "assay": "Antifungal activity against Passalora fulva infected tomato cultivar Alma F1 plants grown in growth chamber assessed as reduction in lesions on leaf at 20 ug a.i./ml sprayed 96 hr prior to inoculation measured after 22 days relative to control", "parameters": "scale not given: the % may be the effect or the level left"}, "Fulvia fulva [19]": {"system": "Fulvia fulva", "assay": "Antifungal activity against Passalora fulva infected tomato cultivar Alma F1 plants grown in growth chamber assessed as reduction in lesions on leaf at 20 ug a.i./ml sprayed 48 hr post-inoculation measured after 22 days relative to control", "parameters": "scale not given: the % may be the effect or the level left"}, "Fulvia fulva [20]": {"system": "Fulvia fulva", "assay": "Antifungal activity against Passalora fulva infected tomato cultivar Alma F1 plants grown in growth chamber assessed as reduction in lesions on leaf at 20 ug a.i./ml sprayed 24 hr post-inoculation measured after 22 days relative to control", "parameters": "scale not given: the % may be the effect or the level left"}, "Fulvia fulva [21]": {"system": "Fulvia fulva", "assay": "Antifungal activity against Passalora fulva infected tomato cultivar Alma F1 plants grown in growth chamber assessed as inhibition of sporulation at 20 ug a.i./ml applied at 15 days post-inoculation after appearance of symptoms followed by incubation in growth chamber for 72 hr relative to control"}, "Fulvia fulva [22]": {"system": "Fulvia fulva", "assay": "Antifungal activity against Passalora fulva infected tomato cultivar Alma F1 plants grown in growth chamber assessed as reduction in lesions on leaf at 100 ug a.i./ml sprayed 48 hr post-inoculation measured after 22 days relative to control", "parameters": "scale not given: the % may be the effect or the level left"}, "Fulvia fulva [23]": {"system": "Fulvia fulva", "assay": "Antifungal activity against Passalora fulva infected tomato cultivar Alma F1 plants grown in growth chamber assessed as inhibition of sporulation at 100 ug a.i./ml applied at 15 days post-inoculation after appearance of symptoms followed by incubation in growth chamber for 72 hr relative to control", "parameters": "scale not given: the % may be the effect or the level left"}, "Fulvia fulva [24]": {"system": "Fulvia fulva", "assay": "Antifungal activity against Passalora fulva infected tomato cultivar Alma F1 plants grown in growth chamber assessed as reduction in lesions on leaf at 100 ug a.i./ml sprayed 24 hr prior to inoculation measured after 22 days relative to control", "parameters": "scale not given: the % may be the effect or the level left"}, "Fulvia fulva [25]": {"system": "Fulvia fulva", "assay": "Antifungal activity against Passalora fulva infected tomato cultivar Alma F1 plants grown in growth chamber assessed as reduction in lesions on leaf at 100 ug a.i./ml sprayed 48 hr prior to inoculation measured after 22 days relative to control", "parameters": "scale not given: the % may be the effect or the level left"}, "Fulvia fulva [26]": {"system": "Fulvia fulva", "assay": "Antifungal activity against Passalora fulva infected tomato cultivar Alma F1 plants grown in growth chamber assessed as reduction in lesions on leaf at 100 ug a.i./ml sprayed 96 hr prior to inoculation measured after 22 days relative to control", "parameters": "scale not given: the % may be the effect or the level left"}, "Fulvia fulva [27]": {"system": "Fulvia fulva", "assay": "Antifungal activity against Passalora fulva infected tomato cultivar Alma F1 plants grown in growth chamber assessed as reduction in lesions on leaf at 100 ug a.i./ml sprayed 24 hr post-inoculation measured after 22 days relative to control", "parameters": "scale not given: the % may be the effect or the level left"}, "Fulvia fulva [28]": {"system": "Fulvia fulva", "assay": "Antifungal activity against Passalora fulva infected tomato cultivar Alma F1 plants grown in growth chamber assessed as reduction in lesions on leaf at 100 ug a.i./ml sprayed 96 hr post-inoculation measured after 22 days relative to control", "parameters": "scale not given: the % may be the effect or the level left"}}, "data": [{"smiles": "CO/N=C(\\C(=O)OC)c1ccccc1CO/N=C(\\C)c1cccc(C(F)(F)F)c1", "values": [{"measurement": "Activity", "setting": "Fulvia fulva [1]", "result": 93.9, "unit": "%"}, {"measurement": "inhibition (INH)", "setting": "Fulvia fulva [2]", "result": 23.2, "unit": "%"}, {"measurement": "Activity", "setting": "Fulvia fulva [3]", "result": 96.5, "unit": "%"}, {"measurement": "Activity", "setting": "Fulvia fulva [4]", "result": 89, "unit": "%"}, {"measurement": "Activity", "setting": "Fulvia fulva [5]", "result": 60.1, "unit": "%"}, {"measurement": "Activity", "setting": "Fulvia fulva [6]", "result": 76.1, "unit": "%"}, {"measurement": "Activity", "setting": "Fulvia fulva [7]", "result": 66.7, "unit": "%"}, {"measurement": "Activity", "setting": "Fulvia fulva [8]", "result": 69.9, "unit": "%"}, {"measurement": "Activity", "setting": "Fulvia fulva [9]", "result": 88.2, "unit": "%"}, {"measurement": "Activity", "setting": "Fulvia fulva [10]", "result": 45.7, "unit": "%"}, {"measurement": "inhibition (INH)", "setting": "Fulvia fulva [11]", "result": 55.7, "unit": "%"}, {"measurement": "Activity", "setting": "Fulvia fulva [12]", "result": 96.5, "unit": "%"}, {"measurement": "Activity", "setting": "Fulvia fulva [13]", "result": 60.9, "unit": "%"}, {"measurement": "Activity", "setting": "Fulvia fulva [14]", "result": 85.3, "unit": "%"}, {"measurement": "Activity", "setting": "Fulvia fulva [15]", "result": 90.9, "unit": "%"}, {"measurement": "Activity", "setting": "Fulvia fulva [16]", "result": 85.3, "unit": "%"}, {"measurement": "Activity", "setting": "Fulvia fulva [17]", "result": 72.8, "unit": "%"}, {"measurement": "Activity", "setting": "Fulvia fulva [18]", "result": 94, "unit": "%"}, {"measurement": "Activity", "setting": "Fulvia fulva [19]", "result": 94.5, "unit": "%"}, {"measurement": "Activity", "setting": "Fulvia fulva [20]", "result": 93.3, "unit": "%"}, {"measurement": "inhibition (INH)", "setting": "Fulvia fulva [21]", "result": 85.1, "unit": "%"}]}, {"smiles": "N#Cc1c(Cl)c(Cl)c(Cl)c(C#N)c1Cl", "note": "[CHLOROTHALONIL]", "values": [{"measurement": "Activity", "setting": "Fulvia fulva [22]", "result": 73.4, "unit": "%"}, {"measurement": "Activity", "setting": "Fulvia fulva [23]", "result": 43.2, "unit": "%"}, {"measurement": "Activity", "setting": "Fulvia fulva [24]", "result": 96.5, "unit": "%"}, {"measurement": "Activity", "setting": "Fulvia fulva [25]", "result": 95.2, "unit": "%"}, {"measurement": "Activity", "setting": "Fulvia fulva [26]", "result": 84.4, "unit": "%"}, {"measurement": "Activity", "setting": "Fulvia fulva [27]", "result": 91, "unit": "%"}, {"measurement": "Activity", "setting": "Fulvia fulva [28]", "result": 48.4, "unit": "%"}]}]}
